From ChEMBL document CHEMBL1130702, “Novel cytotoxic diterpenes from the stem of Dysoxylum kuskusense” (Bioorg Med Chem Lett, 1998)

What was measured:
Type in all cases: functional, cell-based
Conditions in all cases: Homo sapiens
[1] = system: NCI-H522; assay: Compound was tested for cytotoxicity against NCI-H522 (lung tumor)cell line
[2] = system: K562; assay: Compound was tested for cytotoxicity against K-562 (leukemia) cell line
[3] = system: HL-60; assay: Compound was tested for cytotoxicity against HL-60 (TB) cell line
[4] = system: HL-60; assay: Compound was tested for cytotoxicity against HL-60(TB) leukemia tumor cell line

Compound	EC50 [1] [µM]	EC50 [2] [µM]	EC50 [3] [nM]	EC50 [4] [µM]
CC1=CC(=O)C[C@]2(C)CC[C@@H](C(C)CC(=O)CC(C)C)C[C@@H]12 (stereo not given in full)	4.8	5.04	2250	
CC1=CC(=O)C[C@@]2(C)CC[C@@H](C(C)CC(=O)CC(C)C)C[C@@]12OO (stereo not given in full)				2.37
CC1=CC(=O)C[C@]2(C)CC[C@@H](C(C)CC(=O)CC(C)C)C[C@@]12OO (stereo not given in full)				6.35
